In paper PMC7181827, “A Highly Glucose Tolerant ß-Glucosidase from Malbranchea pulchella (MpBg3) Enables Cellulose Saccharification” (Scientific Reports, 2020):

Test system: T1, MpBgl3
T1 construct: native secreted enzyme purified from culture filtrate (cellobiose-grown), N-glycosylated
Assay: p-nitrophenol release, absorbance at […] nm; SigrafW fit
Type: biochemical, Malbranchea pulchella
Details: McIlvaine buffer pH 6.0, 50 °C

Km: 330 µM
Compound: O=[N+]([O-])c1ccc(O[C@@H]2O[C@H](CO)[C@@H](O)[C@H](O)[C@H]2O)cc1 [pNPG]
